This note sets out measurements from patent US20200400567A1, “FUSION POLYPEPTIDE” (PEKING UNIVERSITY, priority 2017, published 2020).

What all share (assay type): cell-based
Assay [1] has as its system human ADRA2A receptor. The assay can be described thus: Response kinetics of GRAB-NE2.2 by photolysis of NPEC-caged-NE. Particulars: GRAB-NE2.2, 10 μM Yohimbine.
Description: 100 μM NPEC-NE was prepared in DMSO. The photo-uncaging experiment was performed on a Nikon laser scanning confocal microscope. The light stimulation was 80% of the 405 nm laser for 76 ms, and the stimulation area was 2×2 pixel rectangle (1 pixel=0.62 μm).
By caging neurotransmitters, neurotransmitters can be quickly activated and released in a certain area, and the signal of the sensor was fast scanned by a microscope to obtain the time constant for the change in fluorescence intensity after the sensor binds to the ligand. The experiment was performed in HEK293T cells using the neurotransmitter NPEC caged NE (i.e., NPEC-NE) (FIG. 29a), 405 nm laser for activating NPEC-caged NE, and GRAB-NE2.2.
The subject of assay [2] is human ADRA2A receptor. Nature of the assay: GRAB-NE2.1 in cultured rat cortical neurons, drug perfusion. Particulars: GRAB-NE2.1 in neurons.
Description: Newborn Sprague-Dawley rats were used for the primary culture of rat neurons. After the skin was washed with alcohol, the head of newborn rat was dissected with surgical instruments, and the vascular membrane on the surface of the cortex was carefully removed after removing the brain. The cortical tissue was cut into pieces and placed in a 0.25% trypsin solution, and digested for 10 minutes in an incubator at 37° C. The digestion was terminated with a DMEM medium containing 5% FBS, and the cells were further isolated by slowly pipetting up and down ten times with a pipette. After standing for 5 minutes, the pellet containing the tissue debris was discarded and the upper layer solution was collected and centrifuged at 1000 rpm for 5 minutes in a centrifuge. Thereafter, the supernatant was discarded and the neurons were resuspended with the Neurobasal+B27 medium used for culturing the neurons. The density was calculated using a cell counting chamber. After that, the cells were diluted at a density of 0.5-1×10^6 cells/ml and plated on the slides coated with poly-lysine (Sigma). Primary neurons were cultured in the Neurobasal+B27 medium, and a half of the medium was exchanged every two days. […]
The optical signal changes of neurons expressing neurotransmitter sensors were detected by perfusion with a neurotransmitter solution.
The subject of assay [3] is human ADRA2A receptor. Nature of the assay: GRAB-NE2.1 in primary cultured rat cardiomyocytes, drug perfusion. Particulars: GRAB-NE2.1 in cardiomyocytes, 1 μM Yohimbine. The source says: The GRAB-NE2.1 sensor was transfected into primary cultured rat cardiomyocytes by liposomes, and the optical signal changes for the ligand binding and affinity for ligand were detected by drug perfusion.

Assay [4] concerns human ADRA2A receptor. Here is the method:
The perfusion system was set on a microscope, and including a solution-introduced system, an imaging cell, and a suction pump. During the perfusion process, the imaging cell was placed above the objective lens of the inverted microscope, and the slide with cultured cells was placed in the cell. The perfusion experiments of different drugs were performed by controlling the switches of the different pipes of the solution-introduced system. The perfusion speed was set to one drop or so per second. In order to ensure the stability of the focal plane, the liquid level was kept constant at all times, and the flow rate of each solution was adjusted accordingly. The aspiration speed was adjusted to maintain the liquid level in the cell over the slide.
The region of interest (ROI) and background area were selected manually prior to the perfusion experiment. The exposure time was set to less than 50 ms and the acquisition frequency was 5 seconds. The solution used for the perfusion was a physiological solution 4k (pH 7.3-7.4), which was used to formulate the drug to the desired concentration. The running time of the program was set to no more than 5 min. After using 4k to balance and stabilize the cells for about 60-90 s, the cells were perfused with drug for 60 s, and then washed with 4k. The excitation light for green fluorescent protein was 488 nm, and for red fluorescent protein was 568 nm. The laser intensity was adjusted according to the working state of the laser and the expression level of the cells.
After the end of the program, the time-fluorescence intensity data sheet was exported. The background was subtracted from the ROI to get the corresponding fluorescence value Ft, and the average value of the fluorescence value before adding the drug was used as the starting fluorescence F0 to calculate
The detection of the response of the GRAB sensor to the ligand (ΔF/F0) was performed by drug perfusion. The cells were maintained in a standard physiological solution, and the formula thereof is: […]
Fluorescence imaging data was processed using ImageJ software. For the fluorescence performance of GRAB sensors in HEK293T cells and neurons, the entire cell body was selected as the data processing region. The change in the fluorescence signal was usually indicated by its relative intensity change. The background area without the expression of the sensor was first subtracted from the fluorescence signal, so as to obtain the true expression intensity of the fluorescent protein.

With `COC(=O)[C@@H]1[C@H]2C[C@H]3c4[nH]c5ccccc5c4CCN3C[C@@H]2CC[C@@H]1O` [Yohimbine], the “effect of blocker on photolysis-induced fluorescence change” value in assay [1] is listed as “inhibited”. Further, the “effect of blocker on ligand-induced optical signal changes” value in assay [2] is reported as “can inhibit”. Further, in assay [3], the “effect of blocker on NE reaction” value is given as “can inhibit”. Besides, the “effect of blocker on NE concentration-dependent changes” value in assay [4] (GRAB-NE2.0, 10 nM to 100 μM NE, 1 μM Yohimbine) was “completely inhibited”. Further, the “effect of blocker on ligand-induced NE sensor signal changes” value in assay [4] (GRAB-NE2.0, Yohimbine 2 μM) is given as “can inhibit”. Besides, the “effect of blocker on NE-induced fluorescence signal” value in assay [4] (GRAB-NE2.1, Yohimbine 2 μM) was “can inhibit”.
